Results from patent publication US7767665B2, “1,3-benzothiazinone derivatives and use thereof” (Takeda Pharmaceutical Company Limited, priority 2001, dated 2010).
Structures can show the parent of a compound that is named as a salt.

How the values were obtained:
[1] = test system: primary heart muscle cells from newborn rats; test: Inhibitory activity on heart muscle cell apoptosis (serum-free culture, viable cell number by WST-8); type: cell-based, Wister rats; settings: Rattus norvegicus, 96 h; mean of three independent experiments; concentration required to increase the mean viable cell number by 50% as compared with that in the absence of test compounds; serum-free Medium 199, 4 days
From the text: Inhibitory Activity on Heart Muscle Cell Apoptosis
Newborn rats (within 1 day afterbirth) were obtained from pregnant Wister rats purchased from Charles River, anesthetized under ether, and sterilized with 70% ethanol, and then their hearts were excised with tweezers. The excised hearts were washed with a phosphate-buffered physiological saline (T900; Takara) and cut into pieces with surgical scissors. These tissue pieces were washed 4 to 5 times with a phosphate-buffered physiological saline to remove a majority of blood-derived non-heart muscle cells. To the tissue pieces derived from 10 newborns, 5 ml of enzyme solution (1.25 mg trypsin (Difco) and 0.25 mg collagenase (Sigma) per ml of phosphate-buffered saline (PBS)) was added and the mixture was stirred with a stirrer at 37° C. for 15 minutes. Another 2.5 ml enzyme solution was then added twice repeatedly at a 15-minutes interval. Then, Medium 199 (Gibco) containing 10% fetal calf serum (Biowiker) was added in a half volume of the enzyme solution to terminate the enzyme reaction. The cells were filtered through a Cell Strainer (Falcon) and then centrifuged at 400×g for 5 minutes, whereby the cells were collected.
The cells thus collected from 10 newborns were suspended in 50 ml Medium 199 containing 10% fetal calf serum, plated onto 100 mm Petri dishes (Iwaki) in a volume of 10 ml/dish and cultured for 1 hour in a CO2 incubator set at 5% CO2 and 37° C. The cells were then recovered, filtered through a Cell Strainer and centrifuged at 400×g for 5 minutes to collect the primary heart muscle cells derived from newborn rats.
Then, the heart muscle cells from 10 newborn rats were suspended in 2 ml low-isotonic solution (prepared by dissolving 8.29 g NH4Cl, 1.0 g KHCO3, 37 mg EDTA/2Na (ethylenediaminetetraacetic acid disodium) (Dojindo) in 1 L of water) and left for 3 minutes to disrupt erythrocytes. After 10 ml Medium 199 containing 10% fetal calf serum was added thereto, the primary heart muscle cells from newborn rats were collected by centrifugation at 400×g for 5 minutes. The cells were suspended in Medium 199 containing 10% fetal calf serum and then filtered through a cell strainer. After 0.3% trypan blue was added to, and mildly mixed with, an aliquot of the resulting cell suspension, the number of heart muscle cells was counted on an erythrocyte counting plate.
The primary heart muscle cells from newborn rats were suspended at a density of 3×10^6 cells/ml in Medium 199 containing 10% fetal calf serum, put onto a 96-well plate in a volume of 0.1 ml/well, and then cultured in a CO2 incubator set at 5% CO2 and 37° C. After the plate was stirred with a micromixer (Taiyo Kagaku Kogyo), the medium was exchanged 3 times with serum-free Medium 199, and then test compounds were added thereto. The cells were cultured for additional 4 days to induce apoptosis. Then, fetal calf serum was added thereto at a concentration of 10%, and the cells were further cultured for about 17 hours in a CO2 incubator set at 5% CO2 and 37° C. Finally, the number of viable cells was determined with Cell Counting Kit (Dojindo) using WST-8 (2-(2-methoxy-4-nitrophenyl)-3-(4-nitrophenyl)-5-(2,4-disulfophenyl)-2H-tetrazolium, monosodium salt) as the coloring substrate to determine the inhibition of the heart muscle cell apoptosis.
The above-mentioned experiment was triplicated in an independent manner.
The Mean minimal effective concentration (±SD) was shown for each test compound (Compounds 1 to 5 obtained in Reference Examples) in Table 1. In Table 1, the minimal effective concentration is defined as the concentration required to increase the mean viable cell number by 50% as compared with that in the absence of test compounds.

Row | SMILES | minimal effective concentration [1] | melting point
1 | O=c1nc(-c2ccnc(Cl)c2)sc2ccccc12 [Example 76, 2-(2-Chloro-4-pyridyl)-4H-1,3-benzothiazine-4-one] | 0.036 µM | 177.8 to 178.4 °C
2 | CN(C)CCSc1cccc(-c2nc(=O)c3ccccc3s2)n1 [Example 133, 2-{[6-[2-(N,N-Dimethylamino)ethyl]thio]-2-pyridyl}-4H-1,3-benzothiazine-4-one] | 0.06 µM | 154.8 °C (dec.)
3 | CSc1cccc(-c2nc(=O)c3ccccc3s2)n1 [Example 43, 2-(6-Methylthio-2-pyridyl)-4H-1,3-benzothiazine-4-one] | 0.053 µM | 207.2 to 207.8 °C
4 | Cc1ccc2c(=O)nc(-c3ccccn3)sc2c1 [Example 39, 7-Methyl-2-(2-pyridyl)-4H-1,3-benzothiazine-4-one] | 0.037 µM | 225 to 225.2 °C
5 | O=C(NCc1ccccc1)c1cccc(-c2nc(=O)c3ccccc3s2)n1 [Example 51, N-Benzyl-6-(4-oxo-4H-1,3-benzothiazin-2-yl)-2-pyridinecarboxamide] | 0.034 µM | 197.1 to 197.9 °C
6 | O=c1nc(-c2ccccn2)sc2cccc(F)c12 [Example 21, 5-Fluoro-2-(2-pyridyl)-4H-1,3-benzothiazine-4-one] | 0.03 µM | 256.5 to 257.2 °C
7 | NCCCCCCNC(=O)c1cccc(-c2nc(=O)c3ccccc3s2)n1 [Example 107, N-(6-Aminohexyl)-6-(4-oxo-4H-1,3-benzothiazin-2-yl)-2-pyridinecarboxamide hydrochloride] | 0.012 µM | –
8 | CCCOc1cccc(-c2nc(=O)c3ccccc3s2)n1 [Example 58, 2-(6-Propoxy-2-pyridyl)-4H-1,3-benzothiazine-4-one] | 0.091 µM | 138.3 to 140 °C
9 | CC(C)Sc1cccc(-c2nc(=O)c3ccccc3s2)n1 [Example 127, 2-[6-(Isopropylthio)-2-pyridyl]-4H-1,3-benzothiazine-4-one] | 0.04 µM | 185.4 to 185.8 °C
10 | O=c1nc(-c2cccc(CO)n2)sc2ccccc12 [Example 40, 2-[6-(Hydroxymethyl)-2-pyridyl]-4H-1,3-benzothiazine-4-one] | 0.044 µM | 208.2 to 208.7 °C
11 | COC(=O)c1ccccc1Sc1cc(-c2nc(=O)c3ccccc3s2)ccn1 [Example 77, methyl 2-{[4-(4-oxo-4H-1,3-benzothiazin-2-yl)-2-pyridyl]thio}benzoate] | 0.039 µM | 137 to 137.9 °C
12 | Cc1ccc([S+]([O-])c2cccc(-c3nc(=O)c4ccccc4s3)n2)cc1 (centres unmarked) [Example 63, 2-{6-[(4-Methylphenyl)sulfinyl]-2-pyridyl}-4H-1,3-benzothiazine-4-one] | 0.046 µM | 228 to 228.2 °C
13 | O=c1nc(-c2ccccn2)sc2ccc(F)cc12 [Example 20, 6-Fluoro-2-(2-pyridyl)-4H-1,3-benzothiazine-4-one] | 0.038 µM | 239.9 to 240.4 °C
14 | CCCNC(=O)c1ccc(-c2nc(=O)c3ccccc3s2)nc1 [Example 37, 6-(4-Oxo-4H-1,3-benzothiazin-2-yl)-N-propylnicotinamide] | 0.037 µM | 268 to 268.6 °C
15 | COc1ccc2c(=O)nc(-c3ccccn3)sc2c1 [Example 54, 7-methoxy-2-(2-pyridyl)-4H-1,3-benzothiazine-4-one] | 0.037 µM | 200 to 202.2 °C
16 | CN(C(=O)c1cccs1)c1cccc(-c2nc(=O)c3ccccc3s2)n1 [Example 111, N-Methyl-N-[6-(4-oxo-4H-1,3-benzothiazin-2-yl)-2-pyridyl]-2-thiophenecarboxamide] | 0.037 µM | 191.5 to 192.9 °C
17 | COC(=O)c1ccc(-c2nc(=O)c3ccccc3s2)nc1 [Example 28, Methyl 6-(4-oxo-4H-1,3-benzothiazin-2-yl)nicotinate] | 0.025 µM | –
